The record followed here is US20120142682A1, “ANT[…] INHIBITING BACTERIAL MONO-ADP-RIBOSYLT[…]” (UNIVERSITY OF GUELPH, priority 2010, published 2012).

For series [1], the system named is C38 cells in the presence of 650 ng/mL of ExoA. Kind of series: Determination of half-maximal effective concentration (EC50) in C38 cells. Format: cell-based, Human. The following applies: 96 h. On the procedure: Cell viability was determined using the same method as the cytoprotection assay. The EC50 values were extrapolated from each corresponding line-of-best-fit (Sigmoidal function in Origin 6.1), and the average values reported±the standard deviation.

For another series, the target named is cholix toxin (Vibrio cholerae, UniProt Q5EK40). Kind of series: biochemical. It is filed as biochemical.
In another series the target is WT ExoAc (Pseudomonas aeruginosa, UniProt P11439). Kind of series: biochemical. It is filed as binding, P. aeruginosa.
Series [2] concerns ExoA intoxicated C38 cells. Format: cell-based, Human.
Series [3] relates to Saccharomyces cerevisiae cells expressing the catalytic domain of P. aeruginosa ExoA (ExoAc). As to the kind of experiment: Yeast-based compound screen. It is filed as cell-based. The following applies: compound 50 μM; w303 strain; growth restored.
In a further series the test system is C38 cells. As to the kind of experiment: Mammalian C38 cell drug sensitivity assay (MTT). The settings on record: compound 50 μM. It is filed as cell-based, Human. On the procedure:
The C38 cells were cultured in 25 cm^2 culture flasks containing LHC-8 media with 5% fetal bovine serum at 37° C. in 5% CO2 until 90-100% confluency. The cells were washed with phosphate-buffered saline (PBS) and then detached from the culture flask by treating the cells with Puck's Saline Solution containing 0.02% EDTA. The cell suspension was diluted to a final density of 1.0×10^5 cells/mL and 100-μL aliquots were used to seed a 96-well plate. The cells were then grown in the presence of 50 μM of inhibitor (nonpolar compounds required 0.5% DMSO for solubility).

Where two headings read alike, the source gives them in different places.

What is called EC50 is the midpoint of the concentration-response curve. For orientation: Ki means a measure of affinity in units of concentration, obtained from inhibition or displacement. The Kd is the concentration at which binding is half-saturated. The IC50 is the concentration that inhibits the measured activity by half.

WT ExoAc, sequence (P11439 430-638 limits assumed): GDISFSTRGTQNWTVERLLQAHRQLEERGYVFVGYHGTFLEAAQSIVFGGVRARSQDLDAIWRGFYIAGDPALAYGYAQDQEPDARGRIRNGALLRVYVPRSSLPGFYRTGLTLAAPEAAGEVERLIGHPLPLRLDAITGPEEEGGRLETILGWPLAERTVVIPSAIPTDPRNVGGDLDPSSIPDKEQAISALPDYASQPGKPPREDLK
cholix toxin, sequence (Q5EK40 33-666 limits assumed): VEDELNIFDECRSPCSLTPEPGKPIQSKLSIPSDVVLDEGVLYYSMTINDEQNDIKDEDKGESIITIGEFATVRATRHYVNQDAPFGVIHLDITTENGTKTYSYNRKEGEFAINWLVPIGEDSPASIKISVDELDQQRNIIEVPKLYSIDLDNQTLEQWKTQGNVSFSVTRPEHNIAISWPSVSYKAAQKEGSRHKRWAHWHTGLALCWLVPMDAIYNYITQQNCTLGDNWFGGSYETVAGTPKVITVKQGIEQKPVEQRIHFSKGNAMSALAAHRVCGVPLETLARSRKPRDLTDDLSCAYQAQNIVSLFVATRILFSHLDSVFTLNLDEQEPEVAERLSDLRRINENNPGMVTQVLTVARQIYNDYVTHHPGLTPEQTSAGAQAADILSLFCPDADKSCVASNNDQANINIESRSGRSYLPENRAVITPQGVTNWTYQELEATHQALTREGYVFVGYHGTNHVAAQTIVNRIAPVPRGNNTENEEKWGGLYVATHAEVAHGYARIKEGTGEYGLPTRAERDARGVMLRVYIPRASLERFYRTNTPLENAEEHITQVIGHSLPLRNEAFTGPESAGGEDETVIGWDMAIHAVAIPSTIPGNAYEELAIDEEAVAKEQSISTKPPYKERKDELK

For the compound `O=C1NN=C(CN2CCOCC2)c2c[nH]c3cccc1c23` [Compound P1], in series [1] (650 ng/ml ExoA (10-times LD50), NAP and V30 with 0.5% DMSO), the EC50 amounted to 2900 ± 800 nM. The Ki at cholix toxin (read-out: Ki) stood at 22 ± 4 nM. In addition, the “difference in affinity between the two binding sites” value on WT ExoAc is recorded as about 50 fold. For the same compound, the Kd is 10 nM at WT ExoAc (read-out: Kd) and 650 nM at WT ExoAc (read-out: Kd, second (lower affinity) binding constant (converted)). Besides, in series [2], the “protection of C38 cells from lethal action of high dose ExoA (morphology)” value is “completely protected”. Also, in series [3], the “Protection in Yeast” value was “− (Compounds showing less than 5% growth were scored (−))”.

For the compound `CC1=C(C)C2C(=O)CC(SCC(=O)NCCO)=CC2S1` (centres unmarked) [Compound V30], the EC50 in series [1] (Homo sapiens) is 8800 ± 500 nM. Further, on cholix toxin, the IC50 worked out at 2810 nM and the Ki is 367 ± 3 nM. Further, binding on WT ExoAc was put at a Kd of 931 ± 74 nM. Further, in series [2], the “protection of C38 cells against ExoA (in words)” value was “excellent protection” and the “protection of C38 cells from lethal action of high dose ExoA (morphology)” value was “completely protected”. The “Protection in Yeast” value in series [3] was “− (Compounds showing less than 5% growth were scored (−))”.

For the compound `CN(C)CCCOc1ccc(-c2nc3cccc4c3n2CCNC4=O)cc1` [Compound P2], the IC50 on cholix toxin (read-out: IC50) came to 480 ± 40 nM. Besides, the Ki on cholix toxin (read-out: Ki) was found to be 63 ± 5 nM. Moreover, the “toxicity to C38 cells” value with C38 cells is recorded as “toxic”. Further, at WT ExoAc (read-out: Kd), the Kd was determined as 260 ± 10 nM. The “Protection in Yeast” value in series [3] is reported as “− (Compounds showing less than 5% growth were scored (−))”.

Consider `CN1CCN(C2CCC3NC(O)C4CCCCC4C3N2)CC1` (centres unmarked) [Compound P3], for which the half-inhibitory concentration (IC50) on cholix toxin (read-out: IC50) worked out at 690 ± 130 nM. The Ki on cholix toxin (read-out: Ki) turned out to be 90 ± 17 nM. The “toxicity to C38 cells” value in the series with C38 cells was “toxic”. In addition, the Kd at WT ExoAc (read-out: Kd) was 1470 ± 30 nM. In series [3], the “Protection in Yeast” value is “− (Compounds showing less than 5% growth were scored (−))”.

Consider `O=c1[nH]nc2c3c(cccc13)N=CN2` [Compound P7], for which, at cholix toxin (read-out: IC50), the IC50 came to 908 ± 118 nM. Besides, on cholix toxin (read-out: Ki), the Ki worked out at 118 ± 7 nM. For the same compound, the “toxicity to C38 cells” value with C38 cells was “toxic”. Besides, at WT ExoAc (read-out: Kd), the Kd was determined as 680 ± 40 nM. Further, in series [3], the “Protection in Yeast” value is reported as “− (Compounds showing less than 5% growth were scored (−))”.
